Read-outs that look alike come from different tables or passages of the source.
Legend:
[1] = target: Human High specific Activity PARP1 (Homo sapiens (Human), UniProt P09874); assay: PARP1 in vitro selectivity assay (histone PARylation, luminescence); type: biochemical; settings: read-out: PARP1 Biochem IC50
Experimental: PARP1 In vitro selectivity assays were conducted as a 10 ul reaction volume in a NUNC Maxisorp 384-well assay plate pre-coated in-house with Histones. […] The wells were then washed with PBS/0.1% Triton X100. PARP1 activity was then detected by measuring the extent of PARylation. […] Luminescence signal was then measured immediately.

[2] = target: Human Full Length PARG (Homo sapiens (Human), UniProt Q86W56); assay: PARG enzyme assay (TR-FRET); type: biochemical
[3] = target: Human Full Length ARH3 (Homo sapiens (Human), UniProt Q9NX46); assay: ARH3 in vitro selectivity assay (TR-FRET); type: biochemical; settings: read-out: ARH3 Biochem IC50
Experimental: ARH3 In vitro selectivity assays were conducted in a total volume of 15 ul in a standard 384 well format.

[4] = tested on: PARG in HeLa cell line; assay: PARG cell assay (PAR chain immunofluorescence after MMS); type: cell-based; settings: HeLa cells
Procedure, shortened: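 HeLa cells were dosed with compound for 1 h, then given MMS at 50 μg/mL final for a further hour. Cells were methanol-fixed, permeabilised and stained overnight at 4° C with anti-PAR monoclonal antibody. Retained nuclear PAR chains, detected by indirect immunofluorescence, indicate PARG inhibition.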

[5] = read-out: PARG Biochem IC50 Geomean
[6] = Homo sapiens, MMS 50 μg/mL, read-out: PARG Cell IC50 Geomean
[7] = MMS 50 μg/mL, read-out: PARG Cell IC50 Geomean
[8] = Homo sapiens, MMS treatment, read-out: PARG Cell IC50

Sequence of Human High specific Activity PARP1 (P09874 whole entry): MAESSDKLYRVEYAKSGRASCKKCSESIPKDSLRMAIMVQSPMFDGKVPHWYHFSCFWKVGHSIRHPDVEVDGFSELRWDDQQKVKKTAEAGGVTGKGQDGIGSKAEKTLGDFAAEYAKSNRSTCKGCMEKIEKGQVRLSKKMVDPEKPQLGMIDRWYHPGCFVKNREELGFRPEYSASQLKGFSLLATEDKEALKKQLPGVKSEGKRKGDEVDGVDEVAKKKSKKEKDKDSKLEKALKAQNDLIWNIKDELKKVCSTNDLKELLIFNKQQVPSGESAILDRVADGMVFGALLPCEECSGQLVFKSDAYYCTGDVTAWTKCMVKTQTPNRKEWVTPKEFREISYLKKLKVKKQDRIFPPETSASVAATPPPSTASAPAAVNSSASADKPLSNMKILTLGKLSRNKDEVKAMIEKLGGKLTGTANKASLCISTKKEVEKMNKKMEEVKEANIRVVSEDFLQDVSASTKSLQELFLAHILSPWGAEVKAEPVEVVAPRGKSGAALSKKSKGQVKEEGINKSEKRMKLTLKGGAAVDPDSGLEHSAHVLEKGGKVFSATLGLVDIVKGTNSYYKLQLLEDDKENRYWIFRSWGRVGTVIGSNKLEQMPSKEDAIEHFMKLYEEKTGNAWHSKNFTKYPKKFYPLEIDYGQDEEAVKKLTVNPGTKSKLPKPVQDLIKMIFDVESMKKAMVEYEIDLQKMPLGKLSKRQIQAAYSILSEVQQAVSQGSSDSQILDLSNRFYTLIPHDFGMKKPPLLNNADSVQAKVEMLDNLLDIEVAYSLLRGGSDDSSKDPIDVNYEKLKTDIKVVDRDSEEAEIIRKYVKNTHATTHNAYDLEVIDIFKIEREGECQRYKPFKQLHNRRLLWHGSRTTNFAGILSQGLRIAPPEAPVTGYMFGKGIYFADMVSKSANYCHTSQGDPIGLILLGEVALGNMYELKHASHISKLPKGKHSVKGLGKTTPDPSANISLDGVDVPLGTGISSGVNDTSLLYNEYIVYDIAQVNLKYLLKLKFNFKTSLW
Sequence of Human Full Length PARG (Q86W56 whole entry): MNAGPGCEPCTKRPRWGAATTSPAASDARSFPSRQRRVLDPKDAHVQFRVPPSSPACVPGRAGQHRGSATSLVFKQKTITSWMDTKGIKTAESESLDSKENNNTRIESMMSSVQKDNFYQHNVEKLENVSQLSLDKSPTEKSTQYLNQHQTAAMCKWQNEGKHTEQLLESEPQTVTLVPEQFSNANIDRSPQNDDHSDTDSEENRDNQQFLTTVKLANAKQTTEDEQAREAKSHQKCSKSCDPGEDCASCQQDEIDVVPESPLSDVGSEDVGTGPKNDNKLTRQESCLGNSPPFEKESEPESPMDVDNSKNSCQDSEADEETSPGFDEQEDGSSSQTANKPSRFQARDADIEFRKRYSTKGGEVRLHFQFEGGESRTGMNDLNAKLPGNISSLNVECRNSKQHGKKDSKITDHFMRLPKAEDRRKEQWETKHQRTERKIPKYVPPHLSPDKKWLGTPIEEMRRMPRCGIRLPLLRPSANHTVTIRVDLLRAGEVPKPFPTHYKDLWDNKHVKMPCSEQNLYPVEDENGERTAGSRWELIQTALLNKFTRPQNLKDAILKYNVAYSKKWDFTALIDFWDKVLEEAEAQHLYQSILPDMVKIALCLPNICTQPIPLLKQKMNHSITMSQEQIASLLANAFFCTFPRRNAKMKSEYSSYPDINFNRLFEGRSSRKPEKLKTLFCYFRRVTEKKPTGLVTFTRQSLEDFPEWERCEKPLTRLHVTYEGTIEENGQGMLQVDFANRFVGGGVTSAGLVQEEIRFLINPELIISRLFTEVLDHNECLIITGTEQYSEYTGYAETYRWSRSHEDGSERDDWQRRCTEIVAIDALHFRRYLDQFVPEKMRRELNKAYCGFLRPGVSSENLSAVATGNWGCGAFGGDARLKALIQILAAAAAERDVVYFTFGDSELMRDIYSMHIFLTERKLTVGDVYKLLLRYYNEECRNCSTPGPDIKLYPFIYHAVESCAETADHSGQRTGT
Sequence of Human Full Length ARH3 (Q9NX46 whole entry): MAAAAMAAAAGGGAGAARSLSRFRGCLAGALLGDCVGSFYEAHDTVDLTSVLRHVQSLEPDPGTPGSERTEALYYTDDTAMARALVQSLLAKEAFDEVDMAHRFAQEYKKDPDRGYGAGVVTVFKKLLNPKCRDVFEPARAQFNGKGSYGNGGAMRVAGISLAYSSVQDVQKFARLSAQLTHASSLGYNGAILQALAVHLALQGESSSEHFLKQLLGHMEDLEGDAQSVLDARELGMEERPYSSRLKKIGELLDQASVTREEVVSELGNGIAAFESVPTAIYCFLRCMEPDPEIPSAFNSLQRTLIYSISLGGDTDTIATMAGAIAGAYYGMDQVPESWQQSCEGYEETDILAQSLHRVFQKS

Row | SMILES | IC50 [1] [nM] | IC50 [2, 5] [nM] | IC50 [3] [nM] | IC50 [4, 6] [nM] | IC50 [4, 7] [nM] | IC50 ([2]; read-out: PARG Biochem IC50) [nM] | IC50 [4, 8] [nM]
1 | Cc1cc(Cn2cc(C(=O)C3CC3)c3ccc(S(=O)(=O)NC4(C)CC4)cc3c2=O)on1 [Example 311, 4-(Cyclopropanecarbonyl)-N-(1-methylcyclopropyl)-2-[(3-methylisoxazol-5-yl)methyl]-1-oxo-isoquinoline-7-sulfonamide] | > 150000 | 549 | > 150000 |  |  |  | 
2 | Cc1nc(C)c(Cn2c(=O)n(Cc3c(C)noc3C)c(=O)c3cc(S(=O)(=O)NC4(C)CC4)ccc32)s1 [Example 165] | > 150000 | 33 | > 100000 | 63 |  |  | 
3 | Cn1c(=O)c(=O)n(CC2CC2)c2ccc(S(=O)(=O)NC3(C)CC3)cc21 [Example 22, 1-(Cyclopropylmethyl)-4-methyl-N-(1-methylcyclopropyl)-2,3-dioxo-quinoxaline-6-sulfonamide] | > 150000 | 1020 | > 150000 |  |  |  | 
4 | Cc1nc(C)c(Cn2c(=O)n(C)c(=O)c3cc(S(=O)(=O)NC4(C)CC4)ccc32)s1 [Example 133] | > 150000 | 184 | > 100000 |  | 124 |  | 
5 | C#CCn1c(=O)n(Cc2cnc(C)s2)c(=O)c2cc(S(=O)(=O)NC3(C)CC3)ccc21 [Example 161] | > 150000 | 45 | > 100000 |  | 82 |  | 
6 | CC1(NS(=O)(=O)c2ccc3nc(N4CCCC4)[nH]c(=O)c3c2)CC1 [Example 98] | > 150000 | 9440 | > 150000 |  |  |  | 
7 | Cc1ncc(Cn2c(=O)c3cc(S(=O)(=O)NC4(C)CC4)ccc3n(CC3CC3)c2=O)s1 [Example 156] | > 150000 | 19 | > 100000 | 28 |  |  | 
8 | Cc1cc(Cn2c(=O)n(Cc3cnn(C)c3)c(=O)c3cc(S(=O)(=O)NC4(C)CC4)ccc32)n(C)n1 [Example 173] | > 150000 | 18 | > 150000 |  | 88 |  | 
9 | Cc1ncc(Cn2c(=O)c3cc(S(=O)(=O)NC4(C)CC4)ccc3n(Cc3sc(C)nc3C)c2=O)s1 [Example 162] | > 150000 | 4 | > 100000 |  | 9 |  | 
10 | Cc1cc(Cn2nc(Cc3ccccc3)c3ccc(S(=O)(=O)NC4(C)CC4)cc3c2=O)on1 [Example 298] | > 150000 | 648 | > 150000 |  |  |  | 
11 | Cc1cc(Cn2c(=O)c3cc(S(=O)(=O)NC4(C)CC4)ccc3n(C)c2=O)on1 [Example 180] | > 150000 | 426 | > 150000 | 460 |  |  | 
12 | CCn1c(=O)n(Cc2nnc(C)s2)c(=O)c2cc(S(=O)(=O)NC3(CF)CC3)ccc21 [Example 602, 1-Ethyl-N-[1-(fluoromethyl)cyclopropyl]-3-[(5-methyl-1,3,4-thiadiazol-2-yl)methyl]-2,4-dioxo-quinazoline-6-sulfonamide] | > 150000 |  | > 150000 |  |  | 131 | 135
13 | Cc1noc(C)c1Cn1c(=O)c2cc(S(=O)(=O)NC3(C)CC3)ccc2n(CC2CC2)c1=O [Example 158] | > 150000 | 92 | > 100000 |  | 88 |  | 
14 | Cc1nc(C)c(Cn2c(=O)n(Cc3cnn(C)c3)c(=O)c3cc(S(=O)(=O)NC4(CF)CC4)ccc32)s1 [Example 463, 1-[(2,4-Dimethylthiazol-5-yl)methyl]-N-[1-(fluoromethyl)cyclopropyl]-3-[(1-methylpyrazol-4-yl)methyl]-2,4-dioxo-quinazoline-6-sulfonamide] | > 150000 |  | > 150000 |  |  | 6 | 9
15 | CNc1nc2ccc(S(=O)(=O)NC3(C)CC3)cc2n(C)c1=O [Example 41, 4-Methyl-2-(methylamino)-N-(1-methylcyclopropyl)-3-oxo-quinoxaline-6-sulfonamide] | > 150000 | 5550 | > 150000 |  |  |  | 
16 | Cc1cc(Cn2nc(CC3CCOCC3)c3ccc(S(=O)(=O)NC4(C)CC4)cc3c2=O)on1 [Example 308] | > 150000 | 274 | > 150000 |  | 201 |  | 

Reference: US10239843B2 (CANCER RESEARCH TECHNOLOGY LIMITED, priority 2014, dated 2019)
